This note sets out measurements from US20130090355A1, “CHEMICAL AGENTS FOR THE PREVENTION OF INHIBITION OR TUMOR METASTASIS” (ALBERT EINSTEIN COLLEGE OF MEDICINE OF YESHIVA UNIVERSITY, priority 2010, published 2013).

Each structure is given as a SMILES string. “And” between values parts separate entries of the source, which are not always exact repeats. Equal entries are not always repeated. “Also recorded” adds a separate entry of the source. Where two headings read alike, the source gives them in different places.

The target of one data set is C3R/C81S/C86S S100A4 (Homo sapiens, UniProt P26447, C3R/C81S/C86S). Put plainly: Myosin-IIA binding to C3R/C81S/C86S S100A4.
C3R/C81S/C86S S100A4, sequence (P26447 whole entry C3R/C81S/C86S, one chain of several): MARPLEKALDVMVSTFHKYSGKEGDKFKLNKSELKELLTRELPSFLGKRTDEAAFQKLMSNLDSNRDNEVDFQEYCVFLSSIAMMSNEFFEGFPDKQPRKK
Data set [1] has as its target S100A4/myosin-IIA interaction (Homo sapiens, UniProt P26447). Put plainly: Fluorescence polarization assay monitoring the S100A4/myosin-IIA interaction with FITC-MIIA^1908-1923 peptide. In kind it is binding. From the text: An agent that prevents or inhibits the interaction between S100A4 and myosin-IIA may be determined by any method known in the art. For example, a fluorescence polarization assay that monitors the S100A4/myosin-IIA interaction using a fluorescein-tagged myosin-IIA peptide that comprises the minimal S100A4 binding site may be used as described in U.S. application Ser. No. 11/989,901, herein included in full.
A fluorescence polarization assay was developed that monitors the S100A4/myosin-IIA interaction using a fluorescein-tagged myosin-IIA peptide that comprises the minimal S100A4 binding site (FITC-MIIA^1908-1923) (21, 24). […] In collaboration with the Rapid Access to NCI Discovery Resources (R•A•N•D) program, the fluorescence polarization assay was used to screen the LOPAC (1280 compounds) and Maybridge (14,320 compounds) chemical libraries to identify compounds that disrupt the S100A4/myosin-IIA interaction.
EC50 values were determined from sixteen concentration titrations.
(In fluorescence polarisation assays a small probe gives low polarisation when free and higher when bound to something large.)

The subject of data set [2] is MDA-MB-231 cells. Briefly: MTT cell proliferation / growth inhibition assay. The conditions noted are these: for MTT Assay death: MDA-MB-231, 24 hrs.
Experimental: However, all compounds were tested in a cell proliferation assay to identify cytotoxic compounds and determine compound concentrations that can be used to examine effects on motility and invasion.
EC50 values were determined from sixteen concentration titrations. Growth inhibition of MDA-MB-231 cells, which express high levels of S100A4, was examined in a 96-well plate MTT assay at eight drug concentrations after treatment for 24 hrs.
Data set [3] concerns MDA-MB-231 cells. Put plainly: Boyden chamber assay of serum-stimulated chemotaxis. Format: cell-based. As to conditions: Homo sapiens; MDA-MB-231 chemotaxis towards serum (5% FBS), 24 hr; read-out: EC50 inhibition of serum-stimulated migration. On the procedure: FIG. 4. Boyden chamber assay examining the effects of lead compounds on MDA-MB-231 chemotaxis. Cells were serum starved for 5 hrs and plated into the upper chamber of a transwell in serum-free medium. Complete medium (5% FBS) was added to the lower chamber and the cells were allowed to migrate for 24 hr. Cells that penetrated the filter were stained with DAPI and quantified by fluorescence microscopy using 10 fields per filter.
As proof-of-principle that S100A4 inhibitors affect the motile and invasive capabilities of carcinoma cells, cell migration assays examining the ability of NSC 5069 and XAX 00168 to inhibit chemotaxis of MDA-MB-231 cells towards serum in a Boyden chamber assay were initiated (FIG. 4). Both NSC 5069 and XAX 00168 inhibit serum-stimulated migration to varying extents with EC50 values of approximately 40 and 20 μM for NSC 5069 and XAX 00168, respectively.

The target of another data set is wild-type S100A4 (Homo sapiens, UniProt P26447). Briefly: Mass spectrum of wild-type S100A4 after treatment with compound (covalent modification). From the text: (§1) FIG. 3A-3D. Mass spectrum of wild-type S100A4 (A) and following treatment with NSC 95397 (B). Mass spectrum of C81S/C86S S100A4 (C) and following treatment with NSC 95397 (D).
wild-type S100A4, sequence (P26447 whole entry, one chain of several): as the sequence (P26447 whole entry C3R/C81S/C86S, one chain of several) above, with R3C, S81C, S86C counted along it
The target of the next data set is C81S/C86S S100A4 (Homo sapiens, UniProt P26447, C81S/C86S). Put plainly: Mass spectrum of C81S/C86S S100A4 after treatment with compound (covalent modification). The conditions noted are these: Cys81 and Cys86 substituted with serine.
C81S/C86S S100A4, sequence (P26447 whole entry C81S/C86S, one chain of several): as the sequence (P26447 whole entry C3R/C81S/C86S, one chain of several) above, with R3C counted along it
Source text: as §1

Where [4] appears, read: read-out: EC50 (inhibition of the S100A4/myosin-IIA interaction).
Setting [5] is: Table 1, sixteen concentration titrations, read-out: EC50.

S100A4/myosin-IIA interaction, sequence (P26447 whole entry, one chain of several): as the sequence (P26447 whole entry C3R/C81S/C86S, one chain of several) above, with R3C, S81C, S86C counted along it

Take `CSCC[C@H](NC(=O)[C@H](C)NC(=O)[C@H](CC(=O)O)NC(=S)Nc1ccc2c(c1)C(=O)OC21c2ccc(O)cc2Oc2cc(O)ccc21)C(=O)N[C@@H](CC(N)=O)C(=O)N[C@@H](CCCNC(=N)N)C(=O)N[C@@H](CCC(=O)O)C(=O)N[C@H](C(=O)N[C@@H](CO)C(=O)N[C@@H](CO)C(=O)N[C@@H](CC(C)C)C(=O)N[C@@H](CCCCN)C(=O)N[C@@H](CC(N)=O)C(=O)N[C@@H](CCCCN)C(=O)N[C@@H](CC(C)C)C(=O)N[C@@H](CCCNC(=N)N)C(=O)N[C@@H](CCCNC(=N)N)C(=O)O)C(C)C` [FITC-MIIA^1908-1923]: the myosin-IIA binding result on C3R/C81S/C86S S100A4 is “undetectable”.

With `CSc1sc(C(=O)NN)cc1-c1nc(C)cs1` [Maybridge KM03663, 5-methylsulfanyl-4-(4-methyl-1,3-thiazol-2-yl)thiophene-2-carbohydrazide], the EC50 in data set [1] (setting [4]) was 38 to 46 µM. Also, in the data set on MDA-MB-231 cells [2] (at 150 μM), the “MTT Assay death” value was 100% death at 150 μM.

Take `Cc1oc(-c2ccc(Cl)cc2)cc1C(=O)/C(C#N)=C/c1ccccc1` [Maybridge SP00172, 2-{[5-(4-chlorophenyl)-2-methyl-3-furyl]carbonyl}-3-phenylacrylonitrile]: the EC50 in data set [1] (setting [4]) lay within 38 to 46 µM. The “MTT Assay death” value in the data set on MDA-MB-231 cells [2] (at 50 μM) is 100% death at 50 μM.

As usually defined, the GI50 is the concentration at which growth is held to half of that of the control. Higher therefore signals lower sensitivity of the cells. A word on the IC50: it is the concentration that gives 50% inhibition. As to `O=C1NC(=S)S/C1=C\c1cc([N+](=O)[O-])ccc1Sc1ccc(C(F)(F)F)cn1` [Maybridge XAX00168, 5-(5-nitro-2{[5-(trifluoromethyl)-2-pyridyl]thio}benzylidene)-2-thioxo-1,3-thiozolan-4-one], the EC50 in data set [1] (setting [5]) was 46 µM; in data set [1] (setting [4]), 38 to 46 µM and 46 µM; with MDA-MB-231 cells [3] it was around 20 µM. In addition, the GI50 with MDA-MB-231 cells [2] (Homo sapiens, MDA-MB-231) was 190 µM. Moreover, in the data set on MDA-MB-231 cells [2] (Homo sapiens, MDA-MB-231, 24 h, read-out: MTT Assay IC50), the IC50 is 190 µM.

As to `O=C(O)CC1OCC=C2CN3CCC45C6=CC(=O)C(=O)C([N+](=O)[O-])=C6NC4C1C2CC35` (stereo not drawn) [NSC5069, Cacotheline], the EC50 in data set [1] (setting [5]) is 19 µM; in data set [1] (setting [4]) it was 19 µM; with MDA-MB-231 cells [3] it was around 40 µM. The “MTT Assay toxicity” value with MDA-MB-231 cells [2] (MDA-MB-231, eight drug concentrations, 24 hrs) is on record as “did not exhibit toxicity; also recorded: no toxicity detected”.

On to `O=C1C(=O)c2cc([N+](=O)[O-])ccc2-c2ccccc21` [NSC5425/ NSC23180, 2-nitrophenanthrene-9,10-dione], for which the “MTT Assay death” value with MDA-MB-231 cells [2] (@ 10 μM) is given as 100% death @ 10 μM.

`O=C1c2ccccc2-c2ccccc2C1(Cl)Cl` [NSC6339/ NSC135154, 10,10-dichlorophenanthren-9-one]: the “MTT Assay death” value with MDA-MB-231 cells [2] (@ 2.5 μM) stood at 100% death @ 2.5 μM.

Consider `O=C1C(=O)c2cccc([N+](=O)[O-])c2-c2ccccc21` [NSC10204, 4-nitrophenanthrene-9,10-dione], for which the “MTT Assay death” value in the data set on MDA-MB-231 cells [2] (at 100 μM) is listed as 80% death at 100 μM.

Turning to `O=C1C(=O)c2ccccc2-c2ccccc21` [NSC10446/ NSC7389, Phenanthrene-9,10-dione], the “MTT Assay death” value in the data set with MDA-MB-231 cells [2] (@ 25 μM) is 100% death @ 25 μM.

For `O=C1C2=C(SCCS2)C(=O)c2ccccc21` [NSC55480, 2,3-dihydrobenzo[g][1,4]benzodithiine-5,10-dione], the “MTT Assay death” value in the data set on MDA-MB-231 cells [2] (@ 2.5 μM) is given as 100% death @ 2.5 μM.

For the molecule `O=C1C(SCCO)=C(SCCO)C(=O)c2ccccc21` [NSC95397, 2,3-bis(2-hydroxyethylsulfanyl)naphthalene-1,4-dione], in data set [1] (setting [4]), the EC50 was 7.6 µM. In addition, the “MTT Assay death” value in the data set with MDA-MB-231 cells [2] (@ 2.5 μM) stood at 100% death @ 2.5 μM. In addition, the “covalent modification of S100A4 (mass)” value on wild-type S100A4 is “modification of each monomer at two residues”; at C81S/C86S S100A4 it was “prevented modification”.

Take `O=C1C(=O)c2cc(Cl)ccc2-c2ccccc21` [NSC102363, 2-chlorophenanthrene-9,10-dione]: the “MTT Assay death” value in the data set with MDA-MB-231 cells [2] (@ 10 μM) worked out at 100% death @ 10 μM.

As to `[H]/N=C1\C(=O)c2ccccc2-c2ccccc21` [NSC139152, 10-iminophenanthren-9-one], in data set [1] (setting [5]), the EC50 came to 4.3 µM.

For `CC(=O)c1ccc2c(c1)-c1ccccc1C(=O)C2=O` [NSC400689, 3-acetylphenanthrene-9,10-dione], the “MTT Assay death” value with MDA-MB-231 cells [2] (@ 2.5 μM) is on record as 100% death @ 2.5 μM.

As for `O=Nc1c(O)c2ccccc2c2ccc([N+](=O)[O-])cc12` [NSC402968], the EC50 in data set [1] (setting [5]) amounted to 17 µM.
